Experimental data reported in patent US20260242405A1, “N-DERIVATIZED SIALIC ACIDS AND RELATED SIALOSIDES” (THE REGENTS OF THE UNIVERSITY OF CALIFORNIA, priority 2023, published 2026).
Where two headings read alike, the source gives them in different places.

Key:
[1] = molecular target: NB-Aus21 (IBV neuraminidase) (Influenza B virus, UniProt A0A1X9RX69); test: biochemical; design: species or system influenza B virus B/Austria/1359417/2021
[2] = molecular target: N1-BR18 (IAV neuraminidase) (Influenza A virus, UniProt A0A0X9QTS2); test: Fluorescence-based inhibition assay (substrate Neu5Acα2-3GalβMU, β-galactosidase coupled); format: biochemical, influenza A virus A/Brisbane/02/2018 (H1N1); details: for Percentage inhibition against N1-BR18 (IAV) / percentage inhibition against N1-BR18: inhibitor 8.0 μM; for Percentage inhibition against N1-BR18 (IAV): substrate Neu5Acα2-3GalβMU 8.0 μM; for IC50: read-out: IC50 against N1-BR18
[3] = molecular target: T1, hNEU2 (human cytosolic sialidase) (Homo sapiens, UniProt Q9Y3R4); test: as above; format: biochemical; details: inhibitor 8.0 μM
T1 construct: made in house
T1 sequence (Q9Y3R4 whole entry): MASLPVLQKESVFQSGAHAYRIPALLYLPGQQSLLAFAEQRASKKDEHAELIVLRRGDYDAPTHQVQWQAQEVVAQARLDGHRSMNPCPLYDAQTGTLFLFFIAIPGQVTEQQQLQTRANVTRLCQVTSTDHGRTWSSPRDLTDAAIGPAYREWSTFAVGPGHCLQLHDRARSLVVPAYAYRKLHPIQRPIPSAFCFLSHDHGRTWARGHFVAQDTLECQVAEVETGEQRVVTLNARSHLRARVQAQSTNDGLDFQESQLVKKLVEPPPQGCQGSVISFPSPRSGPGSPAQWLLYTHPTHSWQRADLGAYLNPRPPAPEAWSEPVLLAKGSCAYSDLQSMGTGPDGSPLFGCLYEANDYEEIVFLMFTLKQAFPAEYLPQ

[4] = tested on: human, bacterial, and influenza sialidases; test: High-throughput substrate specificity assay with sialyl GalβpNPs (A405 nm); format: biochemical, bacteria, influenza A and B viruses; details: for cleavage by sialidases, selectivity: low and high enzyme-concentration assay conditions, Example 3
[5] = molecular target: N2-Dar21 (IAV neuraminidase) (Influenza A virus, UniProt A0A193ACB1); test: Fluorescence-based inhibition assay (substrate Neu5Acα2-3GalβMU, β-galactosidase coupled); format: biochemical, influenza A virus A/Darwin/9/2021 (H3N2); details: for inhibition at 8 µM: read-out: percentage inhibition against N2-Dar21; for percentage inhibition against N2-Dar21: inhibitor 8.0 μM, Example 3, Table 4
[6] = molecular target: N2-Kan17 (IAV neuraminidase) (Influenza A virus, UniProt A0A193ACB1); test: as above; format: biochemical, influenza A virus A/Kansas/14/2017 (H3N2); details: for inhibition at 8 µM: read-out: percentage inhibition against N2-Kan17; for percentage inhibition against N2-Kan17: inhibitor 8.0 μM, Example 3, Table 4
[7] = tested on: N1-Vic19 (IAV neuraminidase); test: as above; format: biochemical, influenza A virus A/Victoria/2570/2019 (H1N1); details: for percentage inhibition against N1-Vic19: inhibitor 8.0 μM, Example 3, Table 4
[8] = molecular target: T2, SpNanA (sialidase) (Streptococcus pneumoniae, UniProt P62575); test: as above; format: biochemical; details: for inhibition at 8 µM: read-out: percent inhibition against SpNanA; for percent inhibition against SpNanA: inhibitor 8.0 μM, Table 5
T2 construct: made in house

[9] = molecular target: NB-Phu13 (IBV neuraminidase) (Influenza B virus, UniProt A0A1S5RAG6); test: as above; format: biochemical, influenza B virus B/Phuket/3073/2013; details: for inhibition at 8 µM: read-out: percentage inhibition against NB-Phu13; for percentage inhibition against NB-Phu13: inhibitor 8.0 μM, Example 3, Table 4
[10] = molecular target: T3, PmST1 WT (sialidase activity of α2-3-sialyltransferase 1 in the presence of CMP) (Pasteurella multocida, UniProt Q15KI8); test: biochemical; details: for inhibition at 8 µM: read-out: percent inhibition against PmST1 WT; for percent inhibition against PmST1 WT: inhibitor 8.0 μM, in the presence of CMP, Table 5
T3 construct: made in house

[11] = inhibitor 8.0 μM, substrate Neu5Acα2-3GalβMU 8.0 μM, Example 2, Table 2
[12] = substrate Neu5Acα2-3GalβMU 8.0 μM, Example 2, Table 2
[13] = high-concentration enzyme conditions (10-fold, Vc sialidase 4-fold), 1 hour
[14] = high-concentration enzyme conditions, 14 hours
[15] = inhibitor 8.0 μM, substrate Neu5Acα2-3GalβMU 8.0 μM, Example 2, Table 2, read-out: Percentage inhibition against NB-Aus21 (IBV)
[16] = inhibitor 8.0 μM, Example 3, Table 4, read-out: percentage inhibition against NB-NB-Aus21
[17] = read-out: Percentage inhibition against N1-BR18 (IAV), inhibitor 8.0 μM, substrate Neu5Acα2-3GalβMU 8.0 μM, Example 2, Table 2
[18] = read-out: percentage inhibition against N1-BR18, inhibitor 8.0 μM, Example 3, Table 4
[19] = substrate Neu5Acα2-3GalβMU 8.0 μM, Example 2, Table 2, read-out: Percentage inhibition against hNEU2
[20] = Table 5, read-out: percent inhibition against hNEU2
[21] = inhibitor 8.0 μM, Example 3, Table 4

SMILES | Percentage inhibition against NB-Aus21 (IBV) [1, 11] [%] | Percentage inhibition against N1-BR18 (IAV) ([2]; Example 2, Table 2) [%] | Percentage inhibition against hNEU2 [3, 12] [%] | inhibition at 8 µM [5] [%] | inhibition at 8 µM [1, 15] [%] | inhibition at 8 µM [1, 16] [%] | inhibition at 8 µM [6] [%] | percentage inhibition against N1-Vic19 [7] [%] | inhibition at 8 µM [8] [%] | inhibition at 8 µM [2, 17] [%] | inhibition at 8 µM [2, 18] [%] | inhibition at 8 µM [9] [%] | inhibition at 8 µM [3, 19] [%] | inhibition at 8 µM [3, 20] [%] | inhibition at 8 µM [10] [%] | further results
CC(=O)N[C@H]1[C@H]([C@H](O)[C@H](O)CO)OC(O)(C(=O)O)C[C@@H]1NC(=N)N (stereo partly shown) [4-Guanidino-Neu5Ac (9), 4-guanidino-Neu5Ac] | 51.0 ± 0.1 | 76.4 ± 4.9 | 3.3 ± 0.6 |  |  |  |  |  |  |  |  |  |  |  |  | 
CC(=O)N[C@H]1[C@H]([C@H](O)[C@H](O)CO)OC(O)(C(=O)O)C[C@@H]1N=[N+]=[N-] (stereo partly shown) [4N3Neu5Ac (7), 4-azido-Neu5Ac] | 37.5 ± 4.1 | 0.0 ± 4.5 | 3.0 ± 0.8 |  |  |  |  |  |  |  |  |  |  |  |  | 
CC(=O)N[C@@H]1C(N=[N+]=[N-])C[C@](OC2C(O)[C@H](Oc3ccc([N+](=O)[O-])cc3)OC(CO)[C@@H]2O)(C(=O)O)OC1[C@H](O)[C@H](O)CO (stereo partly shown) [4N3Neu5Acα2-3GalβpNP] |  |  |  | 0.8 | 22 ± 3.7 | 3.8 | 0.1 | 1.2 | 0.6 ± 2.7 | 0 | 2.6 | 0.9 | 0 | 0 | 24 ± 6.9 | cleavage by sialidases [4, 13]: completely cleaved; cleavage by sialidases [4, 14]: selectively by influenza virus NAs; cleavage by sialidases, selectivity [4]: selectively cleaved by all influenza NAs tested but not human NEU2 or bacterial sialidases; cleavage by sialidases ([4]; low-concentration enzyme conditions, 30 minutes, 37° C.): cleaved off selectively by influenza virus NAs only
CC(=O)N[C@@H]1C(N=[N+]=[N-])C[C@](OCC2O[C@@H](Oc3ccc([N+](=O)[O-])cc3)C(O)C(O)[C@H]2O)(C(=O)O)OC1[C@H](O)[C@H](O)CO (stereo partly shown) [4N3Neu5Acα2-6GalβpNP] |  |  |  | 1 | 23 ± 3.6 | 1.4 | 0 | 3.9 | 11.6 ± 6.7 | 0 | 0.2 | 2.6 | 0 | 0 | 41.3 ± 20.3 | cleavage by sialidases [4, 13]: low percentage; cleavage by sialidases [4, 14]: selectively by influenza virus NAs; cleavage by sialidases, selectivity [4]: observed only under the high-enzyme-concentration assay conditions
CC(=O)N[C@H]1[C@H]([C@H](O)[C@H](O)CO)OC(C(=O)O)=C[C@@H]1NC(C)=O [4NAcNeu5Ac2en] | 21.3 ± 0.2 | 0.0 ± 2.5 | 2.1 ± 2.5 |  |  |  |  | 0.7 |  |  |  |  |  |  |  | percentage inhibition against N2-Dar21 [5]: 2.4%; percentage inhibition against NB-NB-Aus21 [1, 21]: 1.4%; percentage inhibition against N2-Kan17 [6]: 6.1%; percent inhibition against SpNanA [8]: 0.5 ± 6.5%; percentage inhibition against N1-BR18 ([2]; Example 3, Table 4): 2.5%; percentage inhibition against NB-Phu13 [9]: 0.6%; percent inhibition against hNEU2 ([3]; Table 5): 2.1 ± 2.5%; percent inhibition against PmST1 WT [10]: 7.1 ± 0.7%
CC(=O)N[C@H]1[C@H]([C@H](O)[C@H](O)CO)OC(O)(C(=O)O)C[C@@H]1NC(C)=O (stereo partly shown) [4NAcNeu5Ac (3), 4NAcNeu5Ac] | 27.9 ± 10.1 | 11.5 ± 22.7 | 3.0 ± 1.0 |  |  |  |  |  |  |  |  |  |  |  |  | 
CC(=O)NC1C[C@](OCC2O[C@@H](Oc3ccc([N+](=O)[O-])cc3)C(O)C(O)[C@H]2O)(C(=O)O)OC([C@H](O)[C@H](O)CO)[C@@H]1NC(C)=O (stereo partly shown) [4NAcNeu5Acα2-6GalβpNP] |  |  |  | 0.4 | 21.5 ± 1.7 | 0.4 | 1 | 0.4 | 4.2 ± 0.8 | 0 | 0 | 1.5 | 0 | 0 | 18.6 ± 4 | 
CC(=O)N[C@H]1[C@H]([C@H](O)[C@H](O)CO)OC(C(=O)O)=C[C@@H]1N [4NH2Neu5Ac2en, 4-amino-2,3-dehydro-N-acetylneuraminic acid, reference compound] | 98.3 ± 0.1 | 93.6 ± 0.2 | 0.0 ± 6.6 |  |  |  |  | 95.9 |  |  |  |  |  |  |  | percentage inhibition against N2-Dar21 [5]: 94.6%; percentage inhibition against NB-NB-Aus21 [1, 21]: 97.4%; percentage inhibition against N2-Kan17 [6]: 91.3%; percent inhibition against SpNanA [8]: 7.9 ± 2.6%; IC50 ([2]; fluorescence-based inhibition assay, Example 2, Table 3, listed as 4NH2Neu5 Ac2en): 490 nM; IC50 ([2]; fluorescence-based inhibition assay, Example 2, Table 3): 490 nM; percentage inhibition against N1-BR18 ([2]; Example 3, Table 4): 94.9%; percentage inhibition against NB-Phu13 [9]: 91.2%; percent inhibition against hNEU2 ([3]; Table 5): 0.0 ± 6.6%; percent inhibition against PmST1 WT [10]: 9.8 ± 1.2%
CC(=O)N[C@H]1[C@H]([C@H](O)[C@H](O)CO)OC(O)(C(=O)O)C[C@@H]1N (stereo partly shown) [4NH2Neu5Ac (8), 4-amino-4-deoxy-N-acetylneuraminic acid] |  |  |  |  | 41.8 ± 2.8 |  |  |  |  | 28.6 ± 24.5 |  |  | 2.2 ± 1.2 |  |  | 
CC(=O)N[C@H]1[C@H]([C@H](O)[C@H](O)CO)OC(C(=O)O)=C[C@@H]1N=[N+]=[N-] [Compound 4N3Neu5Ac2en, 4N3Neu5Ac2en] | 82.8 ± 1.7 | 40.7 ± 2.7 | 3.3 ± 0.6 |  |  |  |  | 39.6 |  |  |  |  |  |  |  | percentage inhibition against N2-Dar21 [5]: 22.1%; percentage inhibition against NB-NB-Aus21 ([1]; 8 µM): 78.8±3.7%; IC50 ([1]; Example 3, Table 6, read-out: IC50 against NB-NB-Aus21): 1500 ± 100 nM; percentage inhibition against N2-Kan17 [6]: 18.3%; IC50 ([7]; Example 3, Table 6, read-out: IC50 against N1-Vic19): 6200 ± 400 nM; percent inhibition against SpNanA [8]: 3.0 ± 1.3%; IC50 ([2]; Example 3, Table 6): 4400 ± 200 nM; percentage inhibition against N1-BR18 ([2]; Example 3, Table 4): 39.2%; IC50 ([9]; Example 3, Table 6, read-out: IC50 against NB-Phu13): 1400 ± 100 nM; percentage inhibition against NB-Phu13 [9]: 75.6±1.6%; percent inhibition against hNEU2 ([3]; Table 5): 3.3 ± 0.6%; percent inhibition against PmST1 WT [10]: 15.4 ± 5.0%
CC(=O)N[C@H]1[C@H]([C@H](O)[C@H](O)CO)OC(O)(C(=O)O)C[C@@H]1O (stereo partly shown) [Neu5Ac (1), N-Acetylneuraminic acid, reference compound] |  |  |  |  | 20.2 ± 2.6 |  |  |  |  | 5.2 ± 5.3 |  |  | 1.7 ± 0.5 |  |  | 
CC(=O)N[C@@H]1C(O)C[C@](OC2C(O)[C@H](Oc3ccc([N+](=O)[O-])cc3)OC(CO)[C@@H]2O)(C(=O)O)OC1[C@H](O)[C@H](O)CO (stereo partly shown) [Neu5Acα2-3GalβpNP, reference compound] |  |  |  | 0.9 | 25.6 ± 2.3 | 0.5 | 0.1 | 3.3 | 17.1 ± 6.1 | 2.3 ± 1.2 | 1.8 | 0.7 | 0 | 0 | 12.4 ± 2.2 | 
CC(=O)N[C@@H]1C(O)C[C@](OCC2O[C@@H](Oc3ccc([N+](=O)[O-])cc3)C(O)C(O)[C@H]2O)(C(=O)O)OC1[C@H](O)[C@H](O)CO (stereo partly shown) [Neu5Acα2-6GalβpNP, reference compound] |  |  |  | 0.8 | 25.8 ± 2.1 | 0.2 | 0.4 | 1.4 | 5.8 ± 6.8 | 0 | 3.5 | 0.8 | 0 | 0 | 14.6 ± 6.4 | 
